Assay results published in patent US8173689B2 (Novartis AG, priority 2006, dated 2012).
Where two headings read alike, the source gives them in different places.

Columns and labels:
[1] = molecular target: T1, cytoplasmic domain of the human CSF-1R (Homo sapiens, UniProt P07333); test: In vitro kinase assay for colony stimulating factor-1 receptor (AlphaScreen); format: biochemical; conditions: tested at about 1 μM, read-out: CSF-1R percent inhibition
T1 construct: Recombinant protein corresponding to the cytoplasmic domain of the human CSF-1R; purchased Invitrogen Corporation, Carlsbad, Calif; PV3249
T1 sequence (P07333 539-972 limits assumed): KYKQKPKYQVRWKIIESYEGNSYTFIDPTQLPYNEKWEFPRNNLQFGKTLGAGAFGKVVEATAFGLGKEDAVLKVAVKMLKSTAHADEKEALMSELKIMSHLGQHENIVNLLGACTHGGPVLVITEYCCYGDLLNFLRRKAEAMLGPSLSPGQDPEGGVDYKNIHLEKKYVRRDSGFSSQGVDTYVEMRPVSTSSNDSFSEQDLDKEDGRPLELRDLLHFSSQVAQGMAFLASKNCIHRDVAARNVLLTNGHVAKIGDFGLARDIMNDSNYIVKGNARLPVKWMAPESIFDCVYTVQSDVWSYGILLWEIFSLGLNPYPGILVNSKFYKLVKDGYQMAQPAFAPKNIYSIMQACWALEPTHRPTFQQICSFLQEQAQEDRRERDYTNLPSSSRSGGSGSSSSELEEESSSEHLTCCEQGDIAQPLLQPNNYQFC
Outline: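 AlphaScreen read-out (PT66 anti-pTyr acceptor beads, streptavidin donor beads, overnight incubation) measured phosphorylated peptide product. The product was formed by the human CSF-1R cytoplasmic domain at 4 nM with 1 µM ATP in Mg2+/Mn2+ HEPES buffer, pH 7.5. Compound dilution series were 3-fold, starting at 25 µM.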

[2] = molecular target: T2, full-length human CSF-1R receptor (Homo sapiens, UniProt P07333); test: In vitro inhibition of CSF-1R receptor tyrosine phosphorylation in transfected HEK293H cells stimulated with MCSF; format: cell-based; conditions: HEK293-H, tested at about 1 μM, read-out: pCSF1R percent inhibition
T2 construct: transfected with the full-length human CSF-1R receptor cloned in house; expressed in transfected cells; host or cells: HEK293H (Invitrogen Cat. #11631017)
T2 sequence (P07333 20-972): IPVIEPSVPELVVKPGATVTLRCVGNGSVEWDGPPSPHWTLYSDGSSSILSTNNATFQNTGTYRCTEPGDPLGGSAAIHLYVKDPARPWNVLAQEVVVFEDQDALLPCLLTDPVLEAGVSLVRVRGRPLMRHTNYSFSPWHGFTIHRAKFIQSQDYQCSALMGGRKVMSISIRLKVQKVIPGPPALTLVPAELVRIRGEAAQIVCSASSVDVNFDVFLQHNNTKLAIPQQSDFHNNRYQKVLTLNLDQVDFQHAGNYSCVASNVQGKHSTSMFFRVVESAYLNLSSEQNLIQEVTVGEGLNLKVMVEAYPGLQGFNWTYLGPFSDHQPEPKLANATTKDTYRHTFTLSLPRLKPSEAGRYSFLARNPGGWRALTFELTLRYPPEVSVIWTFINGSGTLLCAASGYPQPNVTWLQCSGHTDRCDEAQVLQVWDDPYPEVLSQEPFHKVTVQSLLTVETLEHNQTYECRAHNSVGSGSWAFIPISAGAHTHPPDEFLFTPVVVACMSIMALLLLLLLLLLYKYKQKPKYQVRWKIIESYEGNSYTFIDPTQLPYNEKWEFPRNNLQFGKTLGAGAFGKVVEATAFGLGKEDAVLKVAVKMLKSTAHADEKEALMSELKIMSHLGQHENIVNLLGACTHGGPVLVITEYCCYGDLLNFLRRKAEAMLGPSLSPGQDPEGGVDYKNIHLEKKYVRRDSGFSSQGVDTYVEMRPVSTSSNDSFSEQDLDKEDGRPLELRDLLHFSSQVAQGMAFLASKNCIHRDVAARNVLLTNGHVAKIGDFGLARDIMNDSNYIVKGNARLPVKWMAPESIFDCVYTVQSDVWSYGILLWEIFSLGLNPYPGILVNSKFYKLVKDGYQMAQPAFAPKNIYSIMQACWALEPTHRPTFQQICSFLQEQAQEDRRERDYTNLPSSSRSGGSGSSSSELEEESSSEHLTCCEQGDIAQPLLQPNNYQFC
Experimental: The lysate was then transferred to total CSF-1R antibody coated 96-well plates that had already been blocked with 3% Blocker A from Mesoscale discovery (MSD) for 2 hours and washed afterwards. Lysates were incubated overnight at 4° C. and the plates were then washed 4× with MSD Tris Wash Buffer. […] The plates were read on the Sector 6000 instrument (MSD). Raw data was imported in Abase and EC50s calculated with XL-fit data analysis software.

kinase domain of cKIT = molecular target: T3, kinase domain of cKIT (Homo sapiens, UniProt P10721); test: Inhibition of cKIT kinase signaling in an in vitro biochemical assay (alphascreen); conditions: tested at about 1 μM, read-out: cKit percent inhibition
T3 construct: The kinase domain of cKIT was assayed in 50 mM Hepes; purchased Upstate 14-559
T3 sequence (P10721 589-937 limits assumed): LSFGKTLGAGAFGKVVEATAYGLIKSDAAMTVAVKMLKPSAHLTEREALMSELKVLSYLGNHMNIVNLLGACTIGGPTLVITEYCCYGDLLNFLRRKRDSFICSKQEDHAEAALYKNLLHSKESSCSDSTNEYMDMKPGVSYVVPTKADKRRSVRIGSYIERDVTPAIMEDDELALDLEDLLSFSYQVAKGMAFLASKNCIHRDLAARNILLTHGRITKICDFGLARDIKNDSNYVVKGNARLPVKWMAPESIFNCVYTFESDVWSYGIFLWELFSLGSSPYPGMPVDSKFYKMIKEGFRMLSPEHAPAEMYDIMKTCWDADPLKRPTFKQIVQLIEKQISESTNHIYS

kinase domain of PDGFRβ = molecular target: T4, kinase domain of PDGFRβ (Homo sapiens, UniProt P09619); test: Inhibition of PDGFRb kinase signaling in an in vitro biochemical assay (alphascreen); conditions: tested at about 1 μM, read-out: PDGFRβ percent inhibition
T4 construct: The kinase domain of PDGFRβ was assayed in 50 mM Hepes; purchased Invitrogen P3082
T4 sequence (P09619 600-962 limits assumed): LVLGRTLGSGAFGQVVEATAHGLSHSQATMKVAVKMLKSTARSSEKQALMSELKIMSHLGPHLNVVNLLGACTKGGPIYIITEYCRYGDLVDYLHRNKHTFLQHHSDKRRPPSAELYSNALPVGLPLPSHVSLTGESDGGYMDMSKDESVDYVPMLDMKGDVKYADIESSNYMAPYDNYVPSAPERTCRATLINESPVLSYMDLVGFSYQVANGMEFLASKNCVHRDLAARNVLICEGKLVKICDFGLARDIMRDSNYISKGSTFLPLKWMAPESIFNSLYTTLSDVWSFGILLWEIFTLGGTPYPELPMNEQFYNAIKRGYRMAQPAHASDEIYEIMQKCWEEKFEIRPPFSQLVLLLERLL

[3] = tested on: MNFS60 (murine AML cells); test: Cell viability assay in MCSF dependent MNFS60 cells (Cell Titer Glo); format: cell-based; conditions: Mus musculus, tested at about 1 μM, read-out: M-NFS-60 CP percent inhibition
Outline: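 Compounds were serially diluted 3-fold in DMSO to 500× final and added to cells with MCSF at 10 ng/ml final. After 72 hrs at 37° C. under 5% CO2, viable cells were quantified by CellTiter-Glo luminescence; triplicate wells gave EC50 values by curve fitting.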

SMILES | inhibition at 1 µM [1] [%] | inhibition at 1 µM ([2]; HEK293H cells) [%] | inhibition at 1 µM (kinase domain of cKIT) [%] | inhibition at 1 µM (kinase domain of PDGFRβ) [%] | inhibition at 1 µM ([1]; compounds of Table 3) [%] | inhibition at 1 µM ([2]; compounds of Table 3) [%] | inhibition at 1 µM (kinase domain of cKIT; compounds of Table 3) [%] | inhibition at 1 µM (kinase domain of PDGFRβ; compounds of Table 3) [%] | inhibition at 1 µM ([3]; MNFS60 cells) [%] | inhibition at 1 µM ([3]; compounds of Table 3) [%] | inhibition at 1 µM ([3]; MCSF dependent MNFS60 cells) [%]
CNC(=O)c1cc(Oc2ccc3nc(NCc4cccc(Cl)c4Cl)oc3c2)ccn1 [Compound 77, 4-[2-(2,3-Dichloro-benzylamino)-benzooxazol-6-yloxy]-pyridine-2-carboxylic acid methylamide] | 100 | 94 | 92 | 15 |  |  |  |  | 79 |  | 
CNC(=O)c1cc(Oc2ccc3nc(N[C@@H]4CCc5ccccc5C4)sc3c2)ccn1 [Example 329, (R)-N-methyl-4-(2-(1,2,3,4-tetrahydronaphthalen-2-ylamino)benzo[d]thiazol-6-yloxy)picolinamide] | 100 | 92 | 59 | 17 |  |  |  |  |  |  | 84
CNC(=O)c1cc(Oc2ccc3nc(N[C@H]4CCCN(S(=O)(=O)C5CC5)C4)sc3c2)ccn1 [Example 367, (S)-4-(2-(1-(cyclopropylsulfonyl)piperidin-3-ylamino)benzo[d]thiazol-6-yloxy)-N-methylpicolinamide] | 100 | 89 | 13 | 7 |  |  |  |  |  |  | 81
CNC(=O)c1cc(Oc2ccc3nc(NCCc4ccncc4)sc3c2)ccn1 [Example 316, N-methyl-4-(2-(2-(pyridin-4-yl)ethylamino)benzo[d]thiazol-6-yloxy)picolinamide] | 99 | 98 | 8 | 12 |  |  |  |  |  |  | 41
CC(C)CCNc1nc2ccc(Oc3ccnc(-c4cnn(C)c4)c3)cc2s1 [Example 365, N-isopentyl-6-(2-(1-methyl-1H-pyrazol-4-yl)pyridin-4-yloxy)benzo[d]thiazol-2-amine] | 100 | 97 | 100 | 79 |  |  |  |  |  |  | 100
Cc1nc(-c2cc(Oc3ccc4nc(N[C@@H](C)C5CCCCC5)sc4c3)ccn2)[nH]c1C [Example 269, (S)-N-(1-cyclohexylethyl)-6-(2-(4,5-dimethyl-1H-imidazol-2-yl)pyridin-4-yloxy)benzo[d]thiazol-2-amine] |  |  |  |  | 100 | 85 | 18 | 13 |  | 75 | 
CNC(=O)c1cc(Oc2ccc3nc(N[C@@H]4c5ccccc5C[C@@H]4O)sc3c2)ccn1 [Example 323, 4-(2-((1R,2S)-2-hydroxy-2,3-dihydro-1H-inden-1-ylamino)benzo[d]thiazol-6-yloxy)-N-methylpicolinamide] | 100 | 98 | 25 | 24 |  |  |  |  |  |  | 100
CNC(=O)c1cc(Oc2ccc3nc(NC(CO)C4CCOCC4)sc3c2)ccn1 (stereo not shown) [Compound 95] |  |  |  |  | 100 | 65 | 0 | 2 |  | 60 | 
c1ccc2c(Oc3ccc4nc(N[C@@H]5C[C@H]6CC[C@@H]5C6)sc4c3)ccnc2c1 [Example 251, N-((1R,2R,4S)-bicyclo[2.2.1]heptan-2-yl)-6-(quinolin-4-yloxy)benzo[d]thiazol-2-amine] |  |  |  |  | 100 | 74 | 56 | 28 |  | 80 | 
CC(C)[C@@H](CO)Nc1nc2ccc(Oc3ccnc4ccccc34)cc2s1 [Example 244, (S)-3-methyl-2-(6-(quinolin-4-yloxy)benzo[d]thiazol-2-ylamino)butan-1-ol] |  |  |  |  | 100 | 85 | 25 | 35 |  | 67 | 
CNC(=O)c1cc(Oc2ccc3nc(NCC4CCCCO4)sc3c2)ccn1 (stereo not shown) [Example 370, N-methyl-4-(2-((tetrahydro-2H-pyran-2-yl)methylamino)benzo[d]thiazol-6-yloxy)picolinamide] | 100 | 81 | 64 | 34 |  |  |  |  |  |  | 60

The next lines start with results.

inhibition at 1 µM [1] [%] | inhibition at 1 µM ([2]; HEK293H cells) [%] | inhibition at 1 µM (kinase domain of cKIT) [%] | inhibition at 1 µM (kinase domain of PDGFRβ) [%] | inhibition at 1 µM ([1]; compounds of Table 3) [%] | inhibition at 1 µM ([2]; compounds of Table 3) [%] | inhibition at 1 µM (kinase domain of cKIT; compounds of Table 3) [%] | inhibition at 1 µM (kinase domain of PDGFRβ; compounds of Table 3) [%] | SMILES | inhibition at 1 µM ([3]; MNFS60 cells) [%] | inhibition at 1 µM ([3]; compounds of Table 3) [%] | inhibition at 1 µM ([3]; MCSF dependent MNFS60 cells) [%]
 |  |  |  | 100 | 47 | 12 | 0 | CNC(=O)c1cc(Oc2ccc3nc(NC4CCCCNC4=O)sc3c2)ccn1 (stereo not shown) [Compound 93] |  | 23 | 
100 | 88 | 21 | 8 |  |  |  |  | O[C@@H]1CCCC[C@H]1Nc1nc2ccc(Oc3ccnc(-c4ncco4)c3)cc2s1 [Example 372, (1R,2R)-2-(6-(2-(oxazol-2-yl)pyridin-4-yloxy)benzo[d]thiazol-2-ylamino)cyclohexanol] |  |  | 75
101 | 91 | 51 | 0 |  |  |  |  | Cn1cc(-c2cc(Oc3ccc4nc(N[C@H]5CCCN(S(=O)(=O)C6CC6)C5)sc4c3)ccn2)cn1 [Example 373, (S)-N-(1-(cyclopropylsulfonyl)piperidin-3-yl)-6-(2-(1-methyl-1H-pyrazol-4-yl)pyridin-4-yloxy)benzo[d]thiazol-2-amine] |  |  | 100
 |  |  |  | 98 | 90 | 0 | 9 | CNC(=O)c1cc(Oc2ccc3nc(N[C@@H]4CCCC[C@H]4N)sc3c2)ccn1 [Example 297, 4-(2-((1R,2R)-2-aminocyclohexylamino)benzo[d]thiazol-6-yloxy)-N-methylpicolinamide] |  | 42 | 
 |  |  |  | 100 | 96 | 29 | 23 | O[C@@H]1CCCC[C@H]1Nc1nc2ccc(Oc3ccnc(-c4cscn4)c3)cc2s1 [Compound 159] |  | 98 | 
100 | 99 | 37 | 58 |  |  |  |  | Cn1cc(-c2cc(Oc3ccc4nc(N[C@@H](CO)C5CCCCC5)sc4c3)ccn2)cn1 [Example 347, (R)-2-cyclohexyl-2-(6-(2-(1-methyl-1H-pyrazol-4-yl)pyridin-4-yloxy)benzo[d]thiazol-2-ylamino)ethanol] |  |  | 100
 |  |  |  | 100 | 99 | 20 | 30 | CCc1[nH]c(-c2cc(Oc3ccc4nc(N[C@@H]5CCCC[C@H]5O)sc4c3)ccn2)nc1C [Cmpd 162, (1R,2R)-2-(6-(2-(5-ethyl-4-methyl-1H-imidazol-2-yl)pyridin-4-yloxy)benzo[d]thiazol-2-ylamino)cyclohexanol] |  | 100 | 
 |  |  |  | 100 | 98 | 25 | 30 | Nc1ccc(-c2cc(Oc3ccc4nc(N[C@@H]5CCCC[C@H]5O)sc4c3)ccn2)cn1 [Example 261, (1R,2R)-2-(6-(6'-amino-2,3'-bipyridin-4-yloxy)benzo[d]thiazol-2-ylamino)cyclohexanol] |  | 100 | 
 |  |  |  | 100 | 81 | 18 | 8 | O[C@@H]1CCCC[C@H]1Nc1nc2ccc(Oc3ccnc(-c4ccc(F)nc4)c3)cc2s1 [Cmpd 173, (1R,2R)-2-(6-(6'-fluoro-2,3'-bipyridin-4-yloxy)benzo[d]thiazol-2-ylamino)cyclohexanol] |  | 52 | 
